Assay results reported in patent US20240350522A1, “HYGROMYCIN A FOR TREATMENT OF DISEASES AND INFECTIONS” (FLIGHTPATH BIOSCIENCES, INC., priority 2021, published 2024).
Where two headings read alike, the source gives them in different places.

Tests used:
[1] = system: Fusobacterium nucleatum (ATCC 25586); experiment: MBC of Hyg A against F. nucleatum ATCC 25586; assay type: cell-based; conditions: for MBC: ATCC25586
[2] = system: Streptococcus salivarius ATCC13419; experiment: MBC of Hyg A against S. salivarius; assay type: cell-based
Treponema denticola = experiment: MBC of Hyg A against Treponema denticola strains; assay type: cell-based; conditions: for MBC: Treponema denticola
[3] = system: Streptococcus salivarius ATCC13419; experiment: MIC of Hyg A against S. salivarius; assay type: cell-based
[4] = system: Parvimonas micra (ATCC 33270); experiment: MIC of Hyg A against P. micra; assay type: cell-based; conditions: ATCC33270
SF1Ep cells = experiment: Cytotoxicity assay, Cell Proliferation Reagent WST-1; assay type: cell-based, rabbit; conditions: day 7; any concentration tested (0.03-3.84 μg/mL)
Method: Cytotoxicity assay was performed according to the Cell Proliferation Reagent WST-1 protocol (Attached; Roche, Basel, Switzerland). Absorbance was measured after 1 hour incubation with the reagent.

F. nucleatum nucleatum = experiment: Kirby-Bauer diffusion assay; assay type: cell-based; conditions: Fusobacterium nucleatum, mean (SEM), read-out: size of zone inhibition (mm); for zone of inhibition at 5 µg/disc: Hyg A 5 μg per disc; for zone of inhibition at 10 µg/disc: Hyg A 10 μg per disc; for zone of inhibition at 20 µg/disc: Hyg A 20 μg per disc; for zone of inhibition at 40 µg/disc: Hyg A 40 μg per disc
Method: (§1) Three representatives of 6 subspecies of Fusobacterium nucleatum (F. nucleatum) for a total of 18 strains were tested in the experiment. The sub species and strains are described in Table 2.
(§2) All strains were verified by 16S V3/V6 sequence analysis prior to use. The methods described herein were performed in an anaerobic chamber at 37° C. All media and plates were degassed prior to use.
(§3) Hygromycin A (Hyg A) discs were prepared by solubilizing Hyg A in distilled water and sterile filtered. Clindamycin was used as a positive control. Defined amounts of hygromycin A (40, 20, 10 or 5 micrograms), clindamycin (2 micrograms) or sterile distilled water were absorbed onto Kirby-Bauer discs in a biosafety cabinet.
(§4) An overnight culture was grown in Wilkins-Chalgren (WC) broth and back-diluted 1:10 in fresh broth. When an OD 600 reading reached 0.5, 300 μL of the log phase culture was plated onto WC agar plates. The plates were sectioned into quadrants and a Kirby-Bauer (KB) disc impregnated with a defined amount of hygromycin A was placed in each quadrant. Plates were prepared thus in triplicate and the four amounts of hygromycin A were 40, 20 10 and 5 micrograms. The same volume of culture was spread on fourth plate sectioned into six sections for three positive and three negative controls. KB discs with water served as negative controls and KB discs impregnated with 2 micrograms of clindamycin served as positive controls. […] Table 3, Table 4, Table 5, Table 6, Table 7, Table 8 show the mean size of zone inhibitions for each of the subspecies tested using increasing concentrations of hygromycin A where the standard error of mean is represented in parenthesis.
(§5) The amount of hygromycin A was plotted against the size of the zone of inhibition for each strain tested.

[5] = system: F. nucleatum periodonticum; experiment: Kirby-Bauer diffusion assay; assay type: cell-based; conditions: Fusobacterium nucleatum, mean (SEM), read-out: size of zone inhibition (mm); for zone of inhibition at 5 µg/disc: Hyg A 5 μg per disc; for zone of inhibition at 10 µg/disc: Hyg A 10 μg per disc; for zone of inhibition at 20 µg/disc: Hyg A 20 μg per disc; for zone of inhibition at 40 µg/disc: Hyg A 40 μg per disc
Method: as §1, §2, §3, §4, §5

F. nucleatum polymorphum = experiment: Kirby-Bauer diffusion assay; assay type: cell-based; conditions: Fusobacterium nucleatum, mean (SEM), read-out: size of zone inhibition (mm); for zone of inhibition at 5 µg/disc: Hyg A 5 μg per disc; for zone of inhibition at 10 µg/disc: Hyg A 10 μg per disc; for zone of inhibition at 20 µg/disc: Hyg A 20 μg per disc; for zone of inhibition at 40 µg/disc: Hyg A 40 μg per disc
Method: as §1, §2, §3, §4, §5

F. nucleatum fusiforme = experiment: Kirby-Bauer diffusion assay; assay type: cell-based; conditions: Fusobacterium nucleatum, mean (SEM), read-out: size of zone inhibition (mm); for zone of inhibition at 5 µg/disc: Hyg A 5 μg per disc; for zone of inhibition at 10 µg/disc: Hyg A 10 μg per disc; for zone of inhibition at 20 µg/disc: Hyg A 20 μg per disc; for zone of inhibition at 40 µg/disc: Hyg A 40 μg per disc
Method: as §1, §2, §3, §4, §5

[6] = strain 25586 (second column so headed)
[7] = strain 25586, 42 mm = assigned maximum
[8] = strain 203C15, 42 mm = assigned maximum
[9] = strain 203L25, 42 mm = assigned maximum

CC(=O)[C@H]1O[C@@H](Oc2ccc(/C=C(\C)C(=O)N[C@@H]3[C@H](O)[C@@H](O)[C@H]4OCO[C@H]4[C@@H]3O)cc2O)[C@@H](O)[C@@H]1O [Hyg A, Hygromycin A]
MBC ([1]; Fusobacterium nucleatum ATCC 25586, read-out: MBC): ~1 µg/mL
MIC:MBC ratio ([1]; F. nucleatum 25586): 1.0
MBC ([1]; Fusobacterium nucleatum, F. nucleatum 25586, experiment 1, read-out: MBC (μg/ml) 1): 1 µg/mL
MBC ([1]; Fusobacterium nucleatum, F. nucleatum 25586, experiment 2, read-out: MBC (μg/ml) 2): 1 µg/mL
MIC:MBC ratio ([2]; S. salivarius 13419): 10
MBC ([2]; Streptococcus salivarius ATCC13419, read-out: MBC): 10 µg/mL
MBC ([2]; Streptococcus salivarius, ATCC13419, S. salivarius 13419, experiment 1, read-out: MBC (μg/ml) 1): 10 µg/mL
MBC ([2]; Streptococcus salivarius, ATCC13419, S. salivarius 13419, experiment 2, read-out: MBC (μg/ml) 2): 10 µg/mL
MIC:MBC ratio (Treponema denticola; T. denticola 33520): 0.2-1.0
MIC:MBC ratio (Treponema denticola; T. denticola 33521): 0.3-1.0
MIC:MBC ratio (Treponema denticola; T. denticola 35404): 0.1-1.0
MIC:MBC ratio (Treponema denticola; T. denticola 35405): 0.2-0.4
MIC:MBC ratio (Treponema denticola; T. denticola ASLM): 0.5-1.0
MIC:MBC ratio (Treponema denticola; T. denticola H1-T): 1.0
MIC:MBC ratio (Treponema denticola; T. denticola OTK): 0.5-1.0
MIC:MBC ratio (Treponema denticola; T. denticola SP44): 0.5-2.0
MIC:MBC ratio (Treponema denticola; T. denticola US Trep): 0.5
type of effect (bactericidal/bacteriostatic) (Treponema denticola; T. denticola strains, from MBC/MIC ratio): bactericidal
MBC (Treponema denticola; ATCC35404, ATCC 35404, strain most tolerant, read-out: MBC): 5 µg/mL
MBC (Treponema denticola; T. denticola 33520, experiment 1, read-out: MBC (μg/ml) 1): 5 µg/mL
MBC (Treponema denticola; T. denticola 33520, experiment 2, read-out: MBC (μg/ml) 2): 1 µg/mL
MBC (Treponema denticola; T. denticola 33521, experiment 1, read-out: MBC (μg/ml) 1): 0.5 µg/mL
MBC (Treponema denticola; T. denticola 33521, experiment 2, read-out: MBC (μg/ml) 2): 2 µg/mL
MBC (Treponema denticola; T. denticola 35404, experiment 1, read-out: MBC (μg/ml) 1): 5 µg/mL
MBC (Treponema denticola; T. denticola 35404, experiment 2, read-out: MBC (μg/ml) 2): > 5 µg/mL
MBC (Treponema denticola; T. denticola 35405, experiment 1, read-out: MBC (μg/ml) 1): 1 µg/mL
MBC (Treponema denticola; T. denticola 35405, experiment 2, read-out: MBC (μg/ml) 2): 0.5 µg/mL
MBC (Treponema denticola; T. denticola ASLM, experiment 1, read-out: MBC (μg/ml) 1): 1 µg/mL
MBC (Treponema denticola; T. denticola ASLM, experiment 2, read-out: MBC (μg/ml) 2): 1 µg/mL
MBC (Treponema denticola; T. denticola H1-T, experiment 1, read-out: MBC (μg/ml) 1): 0.5 µg/mL
MBC (Treponema denticola; T. denticola H1-T, experiment 2, read-out: MBC (μg/ml) 2): 0.5 µg/mL
MBC (Treponema denticola; T. denticola OTK, experiment 1, read-out: MBC (μg/ml) 1): 1 µg/mL
MBC (Treponema denticola; T. denticola OTK, experiment 2, read-out: MBC (μg/ml) 2): 1 µg/mL
MBC (Treponema denticola; T. denticola SP44, experiment 1, read-out: MBC (μg/ml) 1): 5 µg/mL
MBC (Treponema denticola; T. denticola SP44, experiment 2, read-out: MBC (μg/ml) 2): 2 µg/mL
MBC (Treponema denticola; T. denticola US Trep, experiment 1, read-out: MBC (μg/ml) 1): 1 µg/mL
MBC (Treponema denticola; T. denticola US Trep, experiment 2, read-out: MBC (μg/ml) 2): 1 µg/mL
ratio of MBC/MIC (Treponema denticola; average for all T. denticola strains): 2.3
MIC ([3]; Streptococcus salivarius ATCC13419, read-out: MIC): 10 µg/mL
MIC ([3]; Streptococcus salivarius, ATCC13419, 96 h, S. salivarius, 5% CO2, extended incubation (4 days), read-out: MIC): 20 µg/mL
MIC ([3]; Streptococcus salivarius, ATCC13419, S. salivarius 13419, experiment 1, read-out: MIC (μg/ml) 1): 10 µg/mL
MIC ([3]; Streptococcus salivarius, ATCC13419, S. salivarius 13419, experiment 2, read-out: MIC (μg/ml) 2): 10 µg/mL
MIC ([3]; Streptococcus salivarius, ATCC13419, S. salivarius, 5% CO2, 24 hours incubation, read-out: MIC): 10 µg/mL
MIC ([4]; Parvimonas micra ATCC 33270, read-out: MIC): 2 µg/mL
MIC ([4]; Parvimonas micra, P. micra 33270, experiment 1, read-out: MIC (μg/ml) 1): 2 µg/mL
MIC ([4]; Parvimonas micra, P. micra 33270, experiment 2, read-out: MIC (μg/ml) 2): 2 µg/mL
toxicity to SF1Ep cells (WST-1) (SF1Ep cells): not toxic
zone of inhibition at 5 µg/disc (F. nucleatum nucleatum; strain 203L34): 24 mm
zone of inhibition at 10 µg/disc (F. nucleatum nucleatum; strain 203L34): 30 mm
zone of inhibition at 20 µg/disc (F. nucleatum nucleatum; strain 203L34): 39.7 mm
zone of inhibition at 40 µg/disc (F. nucleatum nucleatum; strain 203L34, 42 mm = assigned maximum): 42 mm
zone of inhibition at 5 µg/disc (F. nucleatum nucleatum; strain 25586 (first column)): 16 mm
zone of inhibition at 10 µg/disc (F. nucleatum nucleatum; strain 25586 (first column)): 20 mm
zone of inhibition at 5 µg/disc (F. nucleatum nucleatum; [6]): 25.7 mm
zone of inhibition at 10 µg/disc (F. nucleatum nucleatum; [6]): 30 mm
zone of inhibition at 20 µg/disc (F. nucleatum nucleatum; [7]): 42 mm
zone of inhibition at 20 µg/disc (F. nucleatum nucleatum; strain 25586): 26 mm
zone of inhibition at 40 µg/disc (F. nucleatum nucleatum; [7]): 42 mm
zone of inhibition at 40 µg/disc (F. nucleatum nucleatum; strain 25586): 30 mm
zone of inhibition at 5 µg/disc ([5]; strain 2_1_31 EAV015): 20.3 mm
zone of inhibition at 10 µg/disc ([5]; strain 2_1_31 EAV015): 23.3 mm
zone of inhibition at 20 µg/disc ([5]; strain 2_1_31 EAV015): 25.3 mm
zone of inhibition at 40 µg/disc ([5]; strain 2_1_31 EAV015): 30 mm
zone of inhibition at 5 µg/disc ([5]; strain 3_1_7B): 29.3 mm
zone of inhibition at 10 µg/disc ([5]; strain 3_1_7B): 34.3 mm
zone of inhibition at 20 µg/disc ([5]; strain 3_1_7B): 36 mm
zone of inhibition at 40 µg/disc ([5]; strain 3_1_7B): 40 mm
zone of inhibition at 5 µg/disc ([5]; strain 209B32): 22 mm
zone of inhibition at 10 µg/disc ([5]; strain 209B32): 25.7 mm
zone of inhibition at 20 µg/disc ([5]; strain 209B32): 30.7 mm
zone of inhibition at 40 µg/disc ([5]; strain 209B32): 35 mm
zone of inhibition at 5 µg/disc (F. nucleatum polymorphum; strain 13_3C EAV005): 16.7 mm
zone of inhibition at 10 µg/disc (F. nucleatum polymorphum; strain 13_3C EAV005): 20 mm
zone of inhibition at 20 µg/disc (F. nucleatum polymorphum; strain 13_3C EAV005): 25.7 mm
zone of inhibition at 40 µg/disc (F. nucleatum polymorphum; strain 13_3C EAV005): 27.3 mm
zone of inhibition at 5 µg/disc (F. nucleatum polymorphum; strain 203L28): 20.3 mm
zone of inhibition at 10 µg/disc (F. nucleatum polymorphum; strain 203L28): 23 mm
zone of inhibition at 20 µg/disc (F. nucleatum polymorphum; strain 203L28): 24 mm
zone of inhibition at 40 µg/disc (F. nucleatum polymorphum; strain 203L28): 30.3 mm
zone of inhibition at 5 µg/disc (F. nucleatum polymorphum; strain 203L29): 18.3 mm
zone of inhibition at 10 µg/disc (F. nucleatum polymorphum; strain 203L29): 20.3 mm
zone of inhibition at 20 µg/disc (F. nucleatum polymorphum; strain 203L29): 24 mm
zone of inhibition at 40 µg/disc (F. nucleatum polymorphum; strain 203L29): 26.7 mm
zone of inhibition at 5 µg/disc (F. nucleatum fusiforme; strain 203C15): 18 mm
zone of inhibition at 10 µg/disc (F. nucleatum fusiforme; strain 203C15): 24 mm
zone of inhibition at 20 µg/disc (F. nucleatum fusiforme; [8]): 42 mm
zone of inhibition at 40 µg/disc (F. nucleatum fusiforme; [8]): 42 mm
zone of inhibition at 5 µg/disc (F. nucleatum fusiforme; strain 203L25): 25 mm
zone of inhibition at 10 µg/disc (F. nucleatum fusiforme; strain 203L25): 28.7 mm
zone of inhibition at 20 µg/disc (F. nucleatum fusiforme; [9]): 42 mm
zone of inhibition at 40 µg/disc (F. nucleatum fusiforme; [9]): 42 mm
zone of inhibition at 5 µg/disc (F. nucleatum fusiforme; strain 203L30): 22.3 mm
zone of inhibition at 10 µg/disc (F. nucleatum fusiforme; strain 203L30): 24.3 mm
zone of inhibition at 20 µg/disc (F. nucleatum fusiforme; strain 203L30): 28 mm
zone of inhibition at 40 µg/disc (F. nucleatum fusiforme; strain 203L30): 30 mm
